Columns and labels:
[1] = system: KP1010 (SHV-12); assay: Aztreonam potentiation (MPC@4), KP1010; format: cell-based
[2] = system: KP1004 (KPC-2); assay: Biapenem potentiation (MPC@1), KP1004; conditions: BLI with biapenem at 1 μg/mL
[3] = system: KP1086 (OXA-48); assay: Biapenem potentiation (MPC@1), KP1086; conditions: BLI with biapenem at 1 μg/mL
[4] = molecular target: Pa AmpC (Pseudomonas aeruginosa, UniProt P24735); assay: Ki, nitrocefin cleavage by purified enzyme, Pa AmpC; format: biochemical; conditions: nitrocefin reporter substrate; read-out: Ki (Pa AmpC, NCF)
Outline: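 Ki derived spectrophotometrically: after adding nitrocefin, absorbance at 490 nm recorded every 10 sec over 10 min. Each purified enzyme had first been incubated with inhibitor at several concentrations for 10 min at room temperature.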

[5] = system: EC1010 (CMY-6); assay: organism not typed; format: cell-based
[6] = system: ec308 (SHV-5); assay: Aztreonam potentiation (MPC@4), ec308; format: cell-based; conditions: BLI with aztreonam at 4 μg/mL
[7] = system: KP1005 (CTX-M-14); assay: Tigemonam potentiation (MPC@4), KP1005; format: cell-based; conditions: BLI with tigemonam at 4 μg/mL
[8] = system: KP1009 (CTX-M-15); assay: Tigemonam potentiation (MPC@4), KP1009; format: cell-based; conditions: BLI with tigemonam at 4 μg/mL
[9] = system: KP1005 (CTX-M-14); assay: Aztreonam potentiation (MPC@4), KP1005; format: cell-based; conditions: BLI with aztreonam at 4 μg/mL
[10] = system: ec302 (TEM-10); assay: Tigemonam potentiation (MPC@4), ec302; format: cell-based
[11] = system: ECL1002; assay: Aztreonam potentiation (MPC@4), ECL1002; format: cell-based; conditions: BLI with aztreonam at 4 μg/mL
[12] = system: ec308 (SHV-5); assay: Tigemonam potentiation (MPC@4), ec308; format: cell-based
[13] = system: KP1009 (CTX-M-15); assay: organism not typed; format: cell-based
[14] = system: KP1010 (SHV-12); assay: Tigemonam potentiation (MPC@4), KP1010; format: cell-based
[15] = system: ECL1002; assay: Tigemonam potentiation (MPC@4), ECL1002; format: cell-based; conditions: BLI with tigemonam at 4 μg/mL
[16] = molecular target: CTX-M-14 (Escherichia coli, UniProt Q9L5C7); assay: Ki, nitrocefin cleavage by purified enzyme, CTX-M-14; format: biochemical; conditions: nitrocefin reporter substrate; read-out: Ki (CTX-M-14, NCF)
Outline: (§1)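 Readout: nitrocefin hydrolysis, A490 recorded every 10 sec over 10 min. Enzyme and inhibitor (varied concentrations) preincubated 10 min, RT, in reaction buffer before substrate addition.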

[17] = molecular target: KPC-2 (Klebsiella pneumoniae, UniProt Q9F663); assay: Ki, nitrocefin cleavage by purified enzyme, KPC-2; format: biochemical; conditions: nitrocefin reporter substrate; read-out: Ki (KPC-2, NCF)
Outline: as §1

[18] = molecular target: OXA-48 (Klebsiella pneumoniae, UniProt Q6XEC0); assay: Ki, nitrocefin cleavage by purified enzyme, OXA-48; format: biochemical; conditions: nitrocefin reporter substrate; read-out: Ki (OXA-48, NCF)
Outline: as §1

[19] = system: ec302 (TEM-10); assay: Aztreonam potentiation (MPC@4), ec302; format: cell-based; conditions: BLI with aztreonam at 4 μg/mL
[20] = system: EC1010 (CMY-6); assay: Tigemonam potentiation (MPC@4), EC1010; format: cell-based; conditions: BLI with tigemonam at 4 μg/mL
[21] = molecular target: SHV-12 (Klebsiella pneumoniae, UniProt P0AD64, E235K/G234S/L31Q); assay: Ki, nitrocefin cleavage by purified enzyme, SHV-12; format: biochemical; conditions: nitrocefin reporter substrate; read-out: Ki (SHV-12, NCF)
Outline: as §1

[22] = molecular target: P99 (Enterobacter cloacae, UniProt P05364); assay: Ki, nitrocefin cleavage by purified enzyme, P99; format: biochemical; conditions: nitrocefin reporter substrate; read-out: Ki (P99, NCF)
Outline: as §1

[23] = system: KP1004 (KPC-2); assay: Aztreonam potentiation (MPC@4), KP1004; format: cell-based; conditions: BLI with aztreonam at 4 μg/mL
[24] = Monomer content of pH adjusted aqueous solutions (LC-UV); format: physicochemical; conditions: 1 mg/mL aqueous salt solution, pH adjusted to 7.6 to 8, LC-UV
Outline: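 Aqueous solutions at 1.00, 10.0 or 100 mg/mL (active fraction) brought to pH 7.6–8 with acid or base, compound fully dissolved. Injected within half an hour of preparation onto C18 reversed-phase LC (0.1% TFA water / 0.085% TFA methanol gradient); UV detection at 220, 254 and 300 nm.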

Pa AmpC, sequence (P24735 27-397): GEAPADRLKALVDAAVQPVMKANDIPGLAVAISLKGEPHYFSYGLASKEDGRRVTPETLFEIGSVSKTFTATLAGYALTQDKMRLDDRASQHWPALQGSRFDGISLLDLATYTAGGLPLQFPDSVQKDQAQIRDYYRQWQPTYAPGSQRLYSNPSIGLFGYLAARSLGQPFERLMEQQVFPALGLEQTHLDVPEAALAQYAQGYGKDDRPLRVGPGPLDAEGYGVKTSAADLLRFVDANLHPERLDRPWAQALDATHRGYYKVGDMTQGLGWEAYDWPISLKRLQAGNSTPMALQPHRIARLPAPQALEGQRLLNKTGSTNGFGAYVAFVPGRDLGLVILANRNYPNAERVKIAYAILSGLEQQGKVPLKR
OXA-48, sequence (Q6XEC0 23-265, looked up, species assumed): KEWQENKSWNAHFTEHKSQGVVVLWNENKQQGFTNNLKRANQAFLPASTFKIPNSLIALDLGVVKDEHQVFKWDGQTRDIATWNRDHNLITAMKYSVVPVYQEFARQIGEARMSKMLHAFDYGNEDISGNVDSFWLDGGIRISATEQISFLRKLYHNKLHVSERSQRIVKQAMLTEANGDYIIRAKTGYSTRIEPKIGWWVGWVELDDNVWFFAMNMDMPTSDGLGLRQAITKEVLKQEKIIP
CTX-M-14, sequence (Q9L5C7 29-291): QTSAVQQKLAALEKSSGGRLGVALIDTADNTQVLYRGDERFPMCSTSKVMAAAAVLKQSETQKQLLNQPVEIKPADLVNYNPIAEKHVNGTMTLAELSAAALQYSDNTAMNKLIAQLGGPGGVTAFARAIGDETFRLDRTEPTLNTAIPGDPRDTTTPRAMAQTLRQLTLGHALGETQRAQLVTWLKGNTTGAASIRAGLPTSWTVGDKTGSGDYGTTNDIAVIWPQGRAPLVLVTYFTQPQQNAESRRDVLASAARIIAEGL
KPC-2, sequence (Q9F663 25-293, looked up, species assumed): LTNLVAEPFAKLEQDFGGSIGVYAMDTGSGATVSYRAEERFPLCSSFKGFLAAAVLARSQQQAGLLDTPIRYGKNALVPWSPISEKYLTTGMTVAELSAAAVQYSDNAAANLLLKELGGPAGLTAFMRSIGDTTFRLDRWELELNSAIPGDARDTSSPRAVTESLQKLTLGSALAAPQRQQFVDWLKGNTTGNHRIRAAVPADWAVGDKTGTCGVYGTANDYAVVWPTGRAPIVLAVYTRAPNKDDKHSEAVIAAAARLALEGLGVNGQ
P99, sequence (P05364 21-381): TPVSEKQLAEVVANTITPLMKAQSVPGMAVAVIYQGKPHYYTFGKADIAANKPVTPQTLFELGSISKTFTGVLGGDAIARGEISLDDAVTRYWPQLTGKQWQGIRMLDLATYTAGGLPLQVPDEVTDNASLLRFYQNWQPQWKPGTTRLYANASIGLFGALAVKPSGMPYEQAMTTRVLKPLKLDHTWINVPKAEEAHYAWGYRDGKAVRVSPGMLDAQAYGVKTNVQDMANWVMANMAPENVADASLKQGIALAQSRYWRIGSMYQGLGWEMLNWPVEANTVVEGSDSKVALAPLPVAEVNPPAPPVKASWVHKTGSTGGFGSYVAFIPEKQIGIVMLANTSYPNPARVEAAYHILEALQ
SHV-12, sequence (P0AD64 22-286 L31Q/G234S/E235K): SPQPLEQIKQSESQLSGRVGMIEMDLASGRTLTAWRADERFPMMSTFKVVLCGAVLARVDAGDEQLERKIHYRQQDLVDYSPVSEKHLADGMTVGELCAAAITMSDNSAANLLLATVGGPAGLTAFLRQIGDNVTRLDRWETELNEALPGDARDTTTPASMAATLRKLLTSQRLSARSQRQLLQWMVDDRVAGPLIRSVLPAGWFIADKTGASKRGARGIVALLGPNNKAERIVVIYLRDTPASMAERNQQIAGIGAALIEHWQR

| SMILES | AZT MPC4 SHV-12 KP1010 [1] | BPM MPC1 KP1004 KPC-2 [2] | BPM MPC1 OXA-48 KP1086 [3] | Ki [4] [nM] | AZT MPC4 CMY-6 EC1010 [5] | AZT MPC4 SHV-5 ec308 [6] | TIG MPC4 CTX-M-14 KP1005 [7] | TIG MPC4 CTX-M-15 KP1009 [8] | AZT MPC4 CTX-M-14 KP1005 [9] | TIG MPC4 TEM-10 ec302 [10] | AZT MPC4 ECL1002 [11] | TIG MPC4 SHV-5 ec308 [12] | AZT MPC4 CTX-M-15 KP1009 [13] | TIG MPC4 SHV-12 KP1010 [14] | TIG MPC4 ECL1002 [15] | Ki [16] [nM] | Ki [17] [nM] | Ki [18] [nM] | AZT MPC4 TEM-10 ec302 [19] | TIG MPC4 CMY-6 EC1010 [20] | also measured |
| --- | --- | --- | --- | --- | --- | --- | --- | --- | --- | --- | --- | --- | --- | --- | --- | --- | --- | --- | --- | --- | --- |
| CSCC(=O)N[C@H]1Cc2cccc(C(=O)O)c2OB1O [A, reference compound] | X (key: X: MIC of less than 1 ng/mL; Y: MIC of 1 μg/mL to 10 μg/mL; Z: MIC of greater than 10 μg/mL) | X (MIC of less than 1 μg/mL) | Y (MIC of 1 μg/mL to 10 μg/mL) | 1 to 10 | X (key: X: MIC of less than 1 ng/mL; Y: MIC of 1 μg/mL to 10 μg/mL; Z: MIC of greater than 10 μg/mL) | X (MIC of less than 1 ng/mL) | Y (MIC of 1 μg/mL to 10 μg/mL) | X (MIC of less than 1 μg/mL) | X (MIC of less than 1 ng/mL) | Y (key: X: MIC of less than 1 ng/mL; Y: MIC of 1 μg/mL to 10 μg/mL; Z: MIC of greater than 10 μg/mL) | X (MIC of less than 1 ng/mL) | X (key: X: MIC of less than 1 μg/mL; Y: MIC of 1 μg/mL to 10 μg/mL; Z: MIC of greater than 10 μg/mL) | X (key: X: MIC of less than 1 ng/mL; Y: MIC of 1 μg/mL to 10 μg/mL; Z: MIC of greater than 10 μg/mL) | X (key: X: MIC of less than 1 μg/mL; Y: MIC of 1 μg/mL to 10 μg/mL; Z: MIC of greater than 10 μg/mL) | X (MIC of less than 1 μg/mL) | – | – | – | – | – | – |
| O=CN[C@H]1Cc2ccc(F)c(C(=O)O)c2OB1O [Compound 6, (R)-7-fluoro-3-formamido-2-hydroxy-3,4-dihydro-2H-benzo[e][1,2]oxaborinine-8-carboxylic acid] | – | X (MIC of less than 1 μg/mL) | Y (MIC of 1 μg/mL to 10 μg/mL) | > 10 | Y (key: X: MIC of less than 1 ng/mL; Y: MIC of 1 μg/mL to 10 μg/mL; Z: MIC of greater than 10 μg/mL) | Y (MIC of 1 μg/mL to 10 μg/mL) | Y (MIC of 1 μg/mL to 10 μg/mL) | Y (MIC of 1 μg/mL to 10 μg/mL) | Y (MIC of 1 μg/mL to 10 μg/mL) | Z (key: X: MIC of less than 1 ng/mL; Y: MIC of 1 μg/mL to 10 μg/mL; Z: MIC of greater than 10 μg/mL) | Y (MIC of 1 μg/mL to 10 μg/mL) | Y (key: X: MIC of less than 1 ng/mL; Y: MIC of 1 μg/mL to 10 μg/mL; Z: MIC of greater than 10 μg/mL) | Y (key: X: MIC of less than 1 ng/mL; Y: MIC of 1 μg/mL to 10 μg/mL; Z: MIC of greater than 10 μg/mL) | Y (key: X: MIC of less than 1 ng/mL; Y: MIC of 1 μg/mL to 10 μg/mL; Z: MIC of greater than 10 μg/mL) | X (MIC of less than 1 μg/mL) | < 1 | > 10 | 1 to 10 | Y (MIC of 1 μg/mL to 10 μg/mL) | X (MIC of less than 1 μg/mL) | Ki [21]: < 1 nM; Ki [22]: > 10 nM |
| CSCC(=O)N[C@H]1Cc2c(F)cc(F)c(C(=O)O)c2OB1O [Compound 32, (R)-5,7-difluoro-2-hydroxy-3-(2-(methylthio)acetamido)-3,4-dihydro-2H-benzo[e][1,2]oxaborinine-8-carboxylic acid] | – | X (MIC of less than 1 μg/mL) | Y (MIC of 1 μg/mL to 10 μg/mL) | > 10 | Y (key: X: MIC of less than 1 ng/mL; Y: MIC of 1 μg/mL to 10 μg/mL; Z: MIC of greater than 10 μg/mL) | Y (MIC of 1 μg/mL to 10 μg/mL) | Y (MIC of 1 μg/mL to 10 μg/mL) | Y (MIC of 1 μg/mL to 10 μg/mL) | Y (MIC of 1 μg/mL to 10 μg/mL) | Z (key: X: MIC of less than 1 ng/mL; Y: MIC of 1 μg/mL to 10 μg/mL; Z: MIC of greater than 10 μg/mL) | Y (MIC of 1 μg/mL to 10 μg/mL) | Y (key: X: MIC of less than 1 ng/mL; Y: MIC of 1 μg/mL to 10 μg/mL; Z: MIC of greater than 10 μg/mL) | Y (key: X: MIC of less than 1 ng/mL; Y: MIC of 1 μg/mL to 10 μg/mL; Z: MIC of greater than 10 μg/mL) | X (key: X: MIC of less than 1 μg/mL; Y: MIC of 1 μg/mL to 10 μg/mL; Z: MIC of greater than 10 μg/mL) | Y (MIC of 1 μg/mL to 10 μg/mL) | 1 to 10 | > 10 | 1 to 10 | Y (MIC of 1 μg/mL to 10 μg/mL) | Y (MIC of 1 μg/mL to 10 μg/mL) | AZT MPC4 KPC-2 KP1004 [23]: Y (MIC of 1 μg/mL to 10 μg/mL); Ki [21]: < 1 nM; % Monomer in 1 mg/mL salt solution [24]: 95.8%; Ki [22]: > 10 nM |
| NC(=O)CC(=O)N[C@H]1Cc2cccc(C(=O)O)c2OB1O [E, reference compound] | X (key: X: MIC of less than 1 ng/mL; Y: MIC of 1 μg/mL to 10 μg/mL; Z: MIC of greater than 10 μg/mL) | X (MIC of less than 1 μg/mL) | Y (MIC of 1 μg/mL to 10 μg/mL) | – | X (key: X: MIC of less than 1 ng/mL; Y: MIC of 1 μg/mL to 10 μg/mL; Z: MIC of greater than 10 μg/mL) | X (MIC of less than 1 ng/mL) | Y (MIC of 1 μg/mL to 10 μg/mL) | Y (MIC of 1 μg/mL to 10 μg/mL) | X (MIC of less than 1 ng/mL) | Z (key: X: MIC of less than 1 ng/mL; Y: MIC of 1 μg/mL to 10 μg/mL; Z: MIC of greater than 10 μg/mL) | X (MIC of less than 1 ng/mL) | Y (key: X: MIC of less than 1 ng/mL; Y: MIC of 1 μg/mL to 10 μg/mL; Z: MIC of greater than 10 μg/mL) | X (key: X: MIC of less than 1 ng/mL; Y: MIC of 1 μg/mL to 10 μg/mL; Z: MIC of greater than 10 μg/mL) | X (key: X: MIC of less than 1 μg/mL; Y: MIC of 1 μg/mL to 10 μg/mL; Z: MIC of greater than 10 μg/mL) | X (MIC of less than 1 μg/mL) | < 1 | – | < 1 | – | – | – |

Source: patent US9963467B2, “Boronic acid derivatives and therapeutic uses thereof” (Rempex Pharmaceuticals, Inc., priority 2014, dated 2018)
